Measurements: patent US10302644B2, “Compositions and methods for treating multiple myeloma” (Dana-Farber Cancer Institute, Inc., priority 2014, dated 2019)

What was measured:
[1] = test system: LC3-II, Bim, PARP, MDM2, XIAP, cIAP, p-p70S6K; assay: Immunoblotting/qPCR of autophagy and apoptosis proteins in MM cells; format: cell-based; details: MM.1S cells, 2.5 μM, 48 h
Protocol: (§1) MM cells were harvested and lysed using RIPA-lysis buffer (Boston Bioproducts, Ashland, Mass.) containing 5 mM EDTA, 5 mM NaF, 2 mM Na3VO4, 1 mM PMSF, 5 μg/ml leupeptin, and 5 μg/ml aprotinin. Nuclear proteins were extracted using “Nuclear Extraction Kit” (Affimetrix). After the determination of protein concentration using DC protein assay (Bio-Rad, Hercules, Calif.), β-mercaptoethanol (-ME) was added to the whole-cell lysates to a 2% final concentration. The whole cell lysates or nuclear extracts were subjected to SDS-PAGE, transferred to nitrocellulose membranes (Bio-Rad, Hercules, Calif.) or polyvinylidene fluoride membranes (Millipore, Billerica, Mass.), and immunoblotted with indicated Abs. Silver staining was carried out using “SilverQuest Staining Kit®” (Invitrogen), according to manufacturer's protocol.
(§2) RNA was extracted using Trizol (Invitrogen) and quantified by a Nanodrop spectrophotometer (Labtech). Specifically, 5×10^6 cells were pelleted, washed with cold PBS, and resuspended in 1 mL Trizol. They were then incubated with 1-Bromo-3-chloropropane (Sigma), washed first with Isopropyl alcohol and then with 75% Ethanol, and resuspended in Nuclease Free-water (Invitrogen). After quantification, 2000 ng of RNA was used to synthesize cDNA via the Superscript II First strand synthesis Kit (Invitrogen), according to the manufacturer's instructions. To evaluate the expression levels of TP53RK, BCL2L11, MYC, Bim, E2F1, TP53, IKZF1, IKZF3, RRM1, p18CDKN2C, PSMB5, PSMB7, PSMA3 and GAPDH, quantitative real time PCR (QRT-PCR) was performed using SYBR GREEN PCR Master Mix (Applied Biosystem), after optimization of the primer conditions. cDNAs were diluted 1:100 or 1:1000 and amplified in a 20 μL reaction. Primers were used at 200 nM or 400 nM concentration. Thermal cycling conditions were: 10 minutes at 95° C., 40 cycles at 95° C. for 15 seconds, followed by 1 minute at 60° C. Real-time quantitative PCR was performed on ABI Prism 7300 Sequence Detection System (Applied Biosystems). Data were analyzed using the delta delta Ct method. GAPDH was used as an invariant control.

p53 target genes = assay: GEP analysis of patient MM cells before and after lenalidomide treatment; format: in vivo, human; details: patient MM cells treated with Len; *p < 0.05
From the text: Expression data for plasma cells from healthy donors, monoclonal gammopathy of undetermined significance (MGUS), and smoldering myeloma (SMM) were derived from GSE5900 dataset, while expression data from normal plasma cells and 65 MM patients were obtained from GSE4452 dataset, using expression profiling on Affymetrix GeneChip (t test, unpaired, equal variance). […] Data were then normalized and analyzed using D-chip software, seeking statistically significant differences among groups or in p53-target gene expression. Statistical significance was determined by Student t test. The minimal level of significance was P<0.05. […] Gene set enrichment analysis (GSEA) was performed as previously described (2) (GSEA v2.0 at http://www.broad.mit.edu/gsea) using gene set as permutation type, as well as 1,000 permutations and signal to noise as metrics for ranking genes.

Chk1, ATM, ATR, Chk2 = assay: Immunoblotting of DNA damage kinase phosphorylation; format: cell-based; details: MM.1S cells, 48 h
Protocol: as §1

RRM1, p18CDKN2C = assay: RRM1 and p18CDKN2C expression (RT-qPCR, Western blot); format: cell-based; details: H929 cells
Protocol: as §1, §2

p53 [2] = assay: Immunoblotting of p53 and phosphorylated p53 in MM cells; format: cell-based
Protocol: as §1

E2F1 = E2F1 DNA binding activity (EMSA), protein and mRNA; format: cell-based; details: MM cells
Protocol: MM cells were harvested and lysed using RIPA-lysis buffer (Boston Bioproducts, Ashland, Mass.) containing 5 mM EDTA, 5 mM NaF, 2 mM Na3VO4, 1 mM PMSF, 5 μg/ml leupeptin, and 5 μg/ml aprotinin. Nuclear proteins were extracted using “Nuclear Extraction Kit” (Affimetrix). After the determination of protein concentration using DC protein assay (Bio-Rad, Hercules, Calif.), β-mercaptoethanol (-ME) was added to the whole-cell lysates to a 2% final concentration. […]
RNA was extracted using Trizol (Invitrogen) and quantified by a Nanodrop spectrophotometer (Labtech). […] After quantification, 2000 ng of RNA was used to synthesize cDNA via the Superscript II First strand synthesis Kit (Invitrogen), according to the manufacturer's instructions. To evaluate the expression levels of TP53RK, BCL2L11, MYC, Bim, E2F1, TP53, IKZF1, IKZF3, RRM1, p18CDKN2C, PSMB5, PSMB7, PSMA3 and GAPDH, quantitative real time PCR (QRT-PCR) was performed using SYBR GREEN PCR Master Mix (Applied Biosystem), after optimization of the primer conditions. cDNAs were diluted 1:100 or 1:1000 and amplified in a 20 μL reaction. […] Real-time quantitative PCR was performed on ABI Prism 7300 Sequence Detection System (Applied Biosystems). Data were analyzed using the delta delta Ct method. […]

MM cells = assay: Growth inhibition assay (MTT) / viable cell count (Trypan-blue); format: cell-based
Protocol: Cell growth was assessed by measuring 3-(4,5-dimethylthiazol-2-yl)-2,5-diphenyl […] bromide (MTT, Chemicon International, Temecula, Calif.) dye absorbance. Cells were pulsed with 10 μl of 5 mg/ml MTT to each well for the last 4 h of 48 h and/or 72 h cultures, followed by 100 μl isopropanol containing 0.04N HCl. Absorbance was measured at 570/630 nm using a spectrophotometer (Molecular Devices Corp., Sunnyvale Calif.).

p53 [3] = assay: p53 DNA binding activity assay; format: cell-based; details: MM.1S and H929 cells, 48 h
Protocol: E2F1 DNA binding activity was assessed by electrophoretic mobility shift assay (EMSA) using “EMSA Gel Shift Kit®” from Affimetrix (Santa Clara, Calif.), and p53 DNA binding activity was performed using “p53 Transcription Factor Assay Kit®” from Cayman Chemical (Ann Arbor, Mich.). Experiments were carried out according to manufacturer's protocols.

hTERT [4] = assay: hTERT expression and telomerase activity (TeloTAGGG Telomerase PCR ELISA); format: cell-based; details: MM.1S cells and H929 cells
Protocol: as §1
Telomerase activity in MM.1S and H929 cells was assessed by “TeloTAGGG Telomerase PCR ELISA®” from Roche Applied Science (Mannheim, Germany).

hTERT [5] = assay: Comparative hTERT expression analysis in matched MM patient samples (GSE8546); format: in vivo, human; details: matched samples before and after Len, GSE8546 dataset

SMILES: Nc1cccc2c1CN(C1CCC(=O)NC1=O)C2=O (stereo not drawn) [Len, lenalidomide]
- LC3-II level [1]: upregulation
- BID expression change (p53 target genes): ↓
- CCNA1 expression change (p53 target genes): ↓
- CCNA2 expression change (p53 target genes): ↓
- CCNE2 expression change (p53 target genes): ↓
- CCNG1 expression change (p53 target genes): ↓
- CCR5 expression change (p53 target genes): ↓
- CDC25B expression change (p53 target genes): ↑
- CDKN3 expression change (p53 target genes): ↓
- CTSL2 expression change (p53 target genes): ↑
- CUL1 expression change (p53 target genes): ↓
- DDX3X expression change (p53 target genes): ↑*
- DDX11 expression change (p53 target genes): ↓
- DLEC1 expression change (p53 target genes): ↓
- FGFR3 expression change (p53 target genes): ↓
- HLA-C expression change (p53 target genes): ↑
- ILR6 expression change (p53 target genes): ↓
- ITM2B expression change (p53 target genes): ↑*
- JUND expression change (p53 target genes): ↓
- KRAS expression change (p53 target genes): ↑*
- LAPTM5 expression change (p53 target genes): ↑
- MAP2K6 expression change (p53 target genes): ↓*
- MKI67 expression change (p53 target genes): ↓
- MSX1 expression change (p53 target genes): ↓
- MYBL2 expression change (p53 target genes): ↓*
- MYC expression change (p53 target genes): ↓
- RAD21 expression change (p53 target genes): ↑
- RAD51C expression change (p53 target genes): ↓
- RHOH expression change (p53 target genes): ↑*
- RRM1 expression change (p53 target genes): ↓*
- RRM2 expression change (p53 target genes): ↓*
- SEC61A1 expression change (p53 target genes): ↑*
- SMC4 expression change (p53 target genes): ↑
- STAT3 expression change (p53 target genes): ↑
- TEAD3 expression change (p53 target genes): ↓
- UBC expression change (p53 target genes): ↑*
- XPC expression change (p53 target genes): ↑
- ZNF330 expression change (p53 target genes): ↓
- phosphorylation of ATM, ATR or Chk2 (Chk1, ATM, ATR, Chk2): not
- phosphorylation of Chk1 (Chk1, ATM, ATR, Chk2): inhibited
- RRM1 expression (RRM1, p18CDKN2C): downregulate
- p18CDKN2C expression (RRM1, p18CDKN2C): upregulate
- p53 phosphorylation at Ser20 and Ser37 (p53 [2]; MM.1S cells, 2.5 μM, 48 h): no change
- phosphorylated (p-Ser15)-p53 and p53 levels (p53 [2]; MM.1S cells, 2.5 μM, 48 h): downregulated
- Nut3-induced upregulation of p-p53 and p53 (p53 [2]; MM.1S cells, Len or Pom 2.5 μM with Nutlin-3a 0.5 μM, 48 h): inhibited
- p-p53/p53 downregulation (p53 [2]; nuclear extracts from MM.1S and H929 cell lines, patient MM cells): further confirmed
- E2F1 (E2F1): increases
- drug-triggered growth inhibition in kinase-dead D163A TP53RK transfectants (MM cells; H929 cells, 48 h): abrogated
- sensitivity of MM cell lines to drug (MM cells; MM.1S and H929 cells with wt-p53 versus cell lines with mutant p53): more sensitive
- drug-triggered cell death after CRBN knock-down (MM cells; OPM2 cells (mutant p53) and H929 cells (wt-p53)): only partially abrogates
- p53 activity (p53 DNA binding) (p53 [3]): block
- hTERT expression (hTERT [4]): significantly inhibited
- telomerase (hTERT) activity (hTERT [4]): significantly inhibited
- hTERT levels in MM patient samples after treatment (hTERT [5]): lower
